The record followed here is ChEMBL document CHEMBL1201862, “PubChem BioAssay data set” (2004).

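Grown in 96-well plates, cells were treated for 48 hours with each compound at five concentrations. Insufficient inhibition: endpoint recorded as highest concentration tested. GI50: concentration for 50% inhibition of growth.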 The source made the active and inactive calls. Cut-off read from the data, not from the text of the source: active = GI50 up to about 1.1 µM and inactive = higher.

Test systems include 786-0; CAKI-1; CCRF-CEM; HCT-116; HOP-92; IGROV-1; K562; KM12; MOLT-4; Malme-3M; NCI-H226; NCI/ADR-RES; OVCAR-3; RPMI-8226; SF-539; SK-OV-3; SNB-19; SW-620; TK-10; UACC-257.
Holding throughout (experiment): NCI anticancer screen, dose series, 48 h

Turning to `Cc1ccc2c3c4c(ccc13)C(C)(C)OC4=C(C(C)C)C2=O`, the GI50 was 66.7 µM (inactive) in the assay with 786-0; > 100 µM (inactive) with CAKI-1; 48.4 µM (inactive) with CCRF-CEM; 53.1 µM (inactive) with HCT-116; 19.5 µM (inactive) with HOP-92; 55.3 µM (inactive) with IGROV-1. Besides, the GI50 with K562 was 59.3 µM (inactive); in the assay with KM12, 54.3 µM (inactive); in the assay with MOLT-4, 26.4 µM (inactive); with Malme-3M it was 39.3 µM (inactive); with NCI-H226, 5.4 µM (inactive); with NCI/ADR-RES, 19.5 µM (inactive). Further, the GI50 is 13.8 µM (inactive) in the assay with OVCAR-3; 43.7 µM (inactive) with RPMI-8226; > 100 µM (inactive) in the assay on SF-539; > 100 µM (inactive) with SK-OV-3; > 100 µM (inactive) in the assay with SNB-19; > 100 µM (inactive) in the assay with SW-620. Besides, the GI50 with TK-10 is 67 µM (inactive); in the assay on UACC-257 it was 30.5 µM (inactive).

With `CN(C)CCCNc1ccc2nnn3c4ccc(O)cc4c(=O)c1c23`, the GI50 with 786-0 was 2.86 µM (inactive); with CAKI-1, 1.64 µM (inactive); with CCRF-CEM, 1.28 µM (inactive); in the assay with HCT-116 it was 1.34 µM (inactive); in the assay on HOP-92, 4.26 µM (inactive); with IGROV-1 it was 1.92 µM (inactive). For the same molecule, the GI50 in the assay on K562 was 7.26 µM (inactive); in the assay on KM12, 1.68 µM (inactive); with MOLT-4, 0.2 µM (active); in the assay with Malme-3M it was 10.3 µM (inactive); in the assay with NCI-H226, 2.51 µM (inactive); in the assay on NCI/ADR-RES, 4.56 µM (inactive). The GI50 is 9.02 µM (inactive) with OVCAR-3; 2.47 µM (inactive) in the assay with RPMI-8226; 6.44 µM (inactive) with SF-539; 5.6 µM (inactive) in the assay with SK-OV-3; 6.61 µM (inactive) in the assay on SNB-19; 1.16 µM (inactive) with SW-620. Besides, the results for the GI50 in the assay with TK-10 and with UACC-257 were 4.67 µM (inactive) and 15.8 µM (inactive), respectively.

`CCCCCCCNC(P(=O)(O)O)P(=O)(O)O`: the GI50 with 786-0, in the assay with CAKI-1, in the assay with CCRF-CEM, with HCT-116, in the assay with HOP-92 and in the assay with IGROV-1 was > 100 µM (inactive) in each case. The GI50 in the assay on K562, in the assay with KM12, in the assay on MOLT-4, in the assay with Malme-3M, in the assay with NCI-H226 and in the assay on NCI/ADR-RES was > 100 µM (inactive) in each case. In addition, the GI50 in the assay with OVCAR-3 is > 100 µM (inactive); in the assay with RPMI-8226 it was 62.8 µM (inactive); with SF-539, > 100 µM (inactive); in the assay with SK-OV-3 it was > 100 µM (inactive); in the assay on SNB-19, > 100 µM (inactive); with SW-620, > 100 µM (inactive). Besides, the GI50 in the assay with TK-10 and in the assay on UACC-257 was > 100 µM (inactive) in each case.

Regarding `O=c1cc(N2CCCC2)[nH]c(=O)n1-c1cccc(C(F)(F)F)c1`, the GI50 in the assay with 786-0, in the assay on CAKI-1, in the assay with CCRF-CEM, in the assay with HCT-116, in the assay on HOP-92 and with IGROV-1 was > 100 µM (inactive) each time. In addition, the GI50 in the assay on K562, with KM12, in the assay with MOLT-4, with Malme-3M, in the assay on NCI-H226 and in the assay with NCI/ADR-RES was > 100 µM (inactive) each time. The GI50 in the assay on OVCAR-3 was > 100 µM (inactive); with RPMI-8226, 76.4 µM (inactive); in the assay on SF-539 it was > 100 µM (inactive); in the assay on SK-OV-3, > 100 µM (inactive); in the assay with SNB-19, > 100 µM (inactive); in the assay on SW-620, > 100 µM (inactive). Moreover, the GI50 in the assay with TK-10 and with UACC-257 was > 100 µM (inactive) throughout.

With `COC(=O)c1ccc2c(c1)CCN2C(=O)c1cc2c(cc1Br)OCO2`, the GI50 in the assay on 786-0 was 0.74 µM (active); in the assay on CAKI-1, 4.7 µM (inactive); in the assay with CCRF-CEM, 0.404 µM (active); with HCT-116 it was 0.228 µM (active); in the assay on HOP-92, 8.69 µM (inactive); in the assay on IGROV-1, 0.614 µM (active). The GI50 with K562 is 0.19 µM (active); with KM12 it was 0.424 µM (active); in the assay on MOLT-4, 0.504 µM (active); with Malme-3M, 0.231 µM (active); in the assay with NCI-H226 it was 0.277 µM (active); in the assay with NCI/ADR-RES, 0.342 µM (active). Further, the GI50 with OVCAR-3 was 0.313 µM (active); in the assay with RPMI-8226, 0.668 µM (active); in the assay on SF-539, 0.148 µM (active); in the assay with SK-OV-3 it was 3.05 µM (inactive); in the assay with SNB-19 it was 0.439 µM (active); in the assay with SW-620, 0.822 µM (active). For the same molecule, the GI50 in the assay with TK-10 was 2 µM (inactive); in the assay on UACC-257, 0.305 µM (active).

As for `COC(=O)CC1(CNC(=O)OCc2ccccc2)OCCO1`, the GI50 in the assay with 786-0, in the assay on CAKI-1, in the assay on CCRF-CEM, in the assay on HCT-116, in the assay with HOP-92 and with IGROV-1 was > 100 µM (inactive) throughout. Besides, the GI50 in the assay with K562, with KM12, with MOLT-4, with Malme-3M, in the assay on NCI-H226 and in the assay on NCI/ADR-RES was > 100 µM (inactive) throughout. The GI50 in the assay on OVCAR-3, with RPMI-8226, with SF-539, in the assay on SK-OV-3, in the assay on SNB-19 and in the assay on SW-620 was > 100 µM (inactive) in each case. The GI50 in the assay on TK-10 and in the assay with UACC-257 was > 100 µM (inactive) in each case.
